What was measured:
Raji = assay: Cytotoxicity against human Raji cells after 72 hrs by luminescence assay; format: cell-based
HEK293 = assay: Cytotoxicity against human HEK293 cells after 72 hrs by luminescence assay; format: cell-based; settings: hek293, 72 h
HepG2 = assay: Cytotoxicity against human HepG2 cells after 72 hrs by luminescence assay; format: cell-based; settings: hepg2, 72 h
BJ = assay: Cytotoxicity against human BJ cells after 72 hrs by luminescence assay; format: cell-based
[1] = Selectivity ratio of EC50 for human HepG2 cells to EC50 for Plasmodium falciparum

SMILES | Activity (Raji) | Activity (HEK293) | Activity (HepG2) | Activity (BJ) | selectivity ratio [1]
Cl.O=C(CCc1ccccc1)c1cc(F)ccc1OCC(O)CN1CCN(Cc2ccccc2)CC1 (racemic) | Non-toxic | Non-toxic | Non-toxic | Non-toxic | > 10
Cc1ccccc1N1CCN(CC(O)COc2ccc(F)cc2C(=O)CCc2ccccc2)CC1.Cl (racemic) | Non-toxic | Non-toxic | Non-toxic | Non-toxic | > 10
Cc1cccc(N2CCN(CC(O)COc3ccc(F)cc3C(=O)CCc3ccccc3)CC2)c1.Cl (racemic) | Non-toxic | Non-toxic | Non-toxic | Non-toxic | > 10
Cc1ccc(N2CCN(CC(O)COc3ccc(F)cc3C(=O)CCc3ccccc3)CC2)cc1.Cl (racemic) | Non-toxic | Non-toxic | Non-toxic | Non-toxic | > 10
COc1ccccc1N1CCN(CC(O)COc2ccc(F)cc2C(=O)CCc2ccccc2)CC1.Cl (racemic) | Non-toxic | Non-toxic | Non-toxic | Non-toxic | > 10
COc1cccc(N2CCN(CC(O)COc3ccc(F)cc3C(=O)CCc3ccccc3)CC2)c1.Cl (racemic) | Non-toxic | Non-toxic | Non-toxic | Non-toxic | > 10
COc1ccc(N2CCN(CC(O)COc3ccc(F)cc3C(=O)CCc3ccccc3)CC2)cc1.Cl (racemic) | Non-toxic | Non-toxic | Non-toxic | Non-toxic | > 10
Cl.O=C(CCc1ccccc1)c1cc(F)ccc1OCC(O)CN1CCN(c2ccccc2Cl)CC1 (racemic) | Non-toxic | Non-toxic | Non-toxic | Non-toxic | > 10
Cl.O=C(CCc1ccccc1)c1cc(F)ccc1OCC(O)CN1CCN(c2ccc(Cl)c(Cl)c2)CC1 (racemic) | Non-toxic | Non-toxic | Non-toxic | Non-toxic | > 10
Cl.O=C(CCc1ccccc1)c1cc(F)ccc1OCC(O)CN1CCN(c2ccccc2F)CC1 (racemic) | Non-toxic | Non-toxic | Non-toxic | Non-toxic | > 10
Cl.O=C(CCc1ccccc1)c1cc(F)ccc1OCC(O)CN1CCN(c2ccc(F)cc2)CC1 (racemic) | Non-toxic | Non-toxic | Non-toxic | Non-toxic | > 10
Cl.O=C(CCc1ccccc1)c1cc(F)ccc1OCC(O)CN1CCN(c2ccc([N+](=O)[O-])cc2)CC1 (racemic) | Non-toxic | Non-toxic | Non-toxic | Non-toxic | > 10
Cl.Nc1ccc(N2CCN(CC(O)COc3ccc(F)cc3C(=O)CCc3ccccc3)CC2)cc1 (racemic) | Non-toxic | Non-toxic | Non-toxic | Non-toxic | > 10
Cl.O=C(CCc1ccccc1)c1cc(F)ccc1OCC(O)CN1CCN(c2ccc(O)cc2)CC1 (racemic) | Non-toxic | Non-toxic | Non-toxic | Non-toxic | > 10
Cl.O=C(CCc1ccccc1)c1cc(F)ccc1OCC(O)CN1CCN(c2ccc(C(F)(F)F)cc2)CC1 (racemic) | Non-toxic | Non-toxic | Non-toxic | Non-toxic | > 10
Cl.O=C(CCc1ccccc1)c1cc(F)ccc1OCC(O)CN1CCN(C(=O)c2ccccc2)CC1 (racemic) | Non-toxic | Non-toxic | Non-toxic | Non-toxic | > 10
CN1CCN(CC(O)COc2ccc(F)cc2C(=O)CCc2ccccc2)CC1.Cl (racemic) | Non-toxic | Non-toxic | Non-toxic | Non-toxic | > 10
CCN1CCN(CC(O)COc2ccc(F)cc2C(=O)CCc2ccccc2)CC1.Cl (racemic) | Non-toxic | Non-toxic | Non-toxic | Non-toxic | > 10
Cl.O=C(CCc1ccc(F)cc1)c1cc(F)ccc1OCC(O)CN1CCCCC1 (racemic) | Non-toxic | Non-toxic | Non-toxic | Non-toxic | > 10
Cl.O=C(CCc1ccc(F)cc1)c1cc(F)ccc1OCC(O)CN1CCC(c2ccccc2)CC1 (racemic) | Non-toxic | Non-toxic | Non-toxic | Non-toxic | > 10
Cl.O=C(CCc1ccc(F)cc1)c1cc(F)ccc1OCC(O)CN1CCC(Cc2ccccc2)CC1 (racemic) | Non-toxic | Non-toxic | Non-toxic | Non-toxic | > 10
Cl.O=C(CCc1ccc(F)cc1)c1cc(F)ccc1OCC(O)CN1CCC(c2ccc(Cl)cc2)CC1 (racemic) | Non-toxic | Non-toxic | Non-toxic | Non-toxic | > 10
Cl.O=C(CCc1ccc(F)cc1)c1cc(F)ccc1OCC(O)CN1CCC(O)CC1 (racemic) | Non-toxic | Non-toxic | Non-toxic | Non-toxic | > 10
Cl.O=C(CCc1ccc(F)cc1)c1cc(F)ccc1OCC(O)CN1CCC(O)(Cc2ccccc2)CC1 (racemic) | Non-toxic | Non-toxic | Non-toxic | Non-toxic | > 10
Cl.O=C(CCc1ccc(F)cc1)c1cc(F)ccc1OCC(O)CN1CCN(c2ccccc2)CC1 (racemic) | Non-toxic | Non-toxic | Non-toxic | Non-toxic | > 10
Cl.O=C(CCc1ccc(F)cc1)c1cc(F)ccc1OCC(O)CN1CCN(Cc2ccccc2)CC1 (racemic) | Non-toxic | Non-toxic | Non-toxic | Non-toxic | > 10
Cl.O=C(CCc1ccccc1)c1cc(F)ccc1OCC(O)CN1CC[N+]([O-])(c2ccc(Cl)cc2)CC1 (racemic) | Non-toxic | Non-toxic | Non-toxic | Non-toxic | > 10
